From the supplement of paper PMC4862054 come the findings set out here.

Test in all cases: normalised viability (% of control), CellTiter-Blue; higher = more viable cells (about 100 = DMSO control)
Details in all cases: incubation time: 72 h

The subject of one experiment is CAL-148. How it is done: (§1)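 DSRT, CellTiter-Blue viability, 72 h incubation. Signal is normalised to DMSO and benzethonium chloride controls. Value is the normalised response at dose 9.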
Another experiment concerns CAL-51. How it is done:
as §1

Another experiment relates to CAL-85-1. How it is done:
as §1

The subject of a further experiment is DU-4475. How it is done:
as §1

Another experiment concerns HDQ-P1. How it is done: as §1
The subject of another experiment is MDA-MB-453. How it is done:
as §1

Each structure is given as a SMILES string.

As to `Cc1cc(Nc2cc(CN3CCOCC3)c3nc(C)c(Cc4ccc(Cl)cc4F)n3n2)n[nH]1` (10000 nM), the normalised viability with CAL-148 amounted to 62.4%; in the experiment on CAL-51, 12.5%; in the experiment with CAL-85-1, 33.1%; in the experiment on DU-4475, 36.9%; in the experiment on HDQ-P1 it was 15%; with MDA-MB-453 it was 36%.

For `COC(=O)c1ccc2c(c1)NC(=O)/C2=C(\Nc1ccc(N(C)C(=O)CN2CCN(C)CC2)cc1)c1ccccc1` [BIBF 1120] (10000 nM), the normalised viability with CAL-148 amounted to 70.5%; in the experiment with CAL-51, 42.3%; in the experiment with CAL-85-1, 53.9%; in the experiment with DU-4475, 24.8%; with HDQ-P1, 56.6%; with MDA-MB-453, 2.37%.

As for `Nc1cc(C(F)(F)F)c(-c2cc(N3CCOCC3)nc(N3CCOCC3)n2)cn1` [BKM-120] (10000 nM), the normalised viability in the experiment with CAL-148 is 6.46%; with CAL-51, 4.15%; in the experiment on CAL-85-1, 20.1%; in the experiment with DU-4475, 12.7%; with HDQ-P1, 12.4%; with MDA-MB-453, 6.1%.

In the case of `CO[C@H]1C[C@@H]2CC[C@@H](C)[C@@](O)(O2)C(=O)C(=O)N2CCCC[C@H]2C(=O)O[C@H]([C@H](C)C[C@@H]2CC[C@@H](OP(C)(C)=O)[C@H](OC)C2)CC(=O)[C@H](C)/C=C(\C)[C@@H](O)[C@@H](OC)C(=O)[C@H](C)C[C@H](C)/C=C/C=C/C=C/1C` [Ridaforolimus] (1000 nM), the normalised viability in the experiment with CAL-148 stood at 35.4%; with CAL-51, 31.3%; with CAL-85-1 it was 50.6%; in the experiment on DU-4475, 6.1%; in the experiment on HDQ-P1, 81.7%; with MDA-MB-453, 21.4%.

Consider `S=P(N1CC1)(N1CC1)N1CC1` [Thio-TEPA] (100000 nM), for which the normalised viability stood at 111% in the experiment with CAL-148; 99.7% with CAL-51; 101% in the experiment with CAL-85-1; 102% with DU-4475; 91.3% with HDQ-P1; 104% in the experiment on MDA-MB-453.

As for `COc1cc2/c(=N/c3ccc(Br)cc3F)nc[nH]c2cc1OCC1CCN(C)CC1` [Vandetanib] (10000 nM), the normalised viability turned out to be 59.6% with CAL-148; 15.3% in the experiment with CAL-51; 17.3% in the experiment on CAL-85-1; 111% with DU-4475; 8.94% in the experiment with HDQ-P1; 17.4% in the experiment with MDA-MB-453.
